Source: patent publication US8017612B2, “Piperazine compound and use thereof as a HCV polymerase inhibitor” (priority 2006, dated 2011)

Experiments:
[1] = target: T1, HCV polymerase (NS5B) type 1a (Hepatitis C virus genotype 1a, UniProt P26664); experiment: Assay of enzyme (HCV polymerase) inhibitory activity, type 1a enzyme; type: biochemical, HCV type 1a (cloned from the blood of patients)
T1 construct: made in house; host or cells: Escherichia coli (by the 'similar method' of the 1b enzyme)
How it was run: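 IC50 values derive from radioactivity of newly synthesized RNA with versus without test compound. The enzyme was C-terminally truncated type 1a NS5B, 1.5 μg/ml, run 60 min at 25° C with 3H-UTP-labelled nucleotides.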

[2] = target: T2, HCV polymerase (NS5B) type 1b (Hepatitis C virus genotype 1b, UniProt P26663); experiment: Assay of enzyme (HCV polymerase) inhibitory activity, type 1b enzyme; type: biochemical, HCV BK strain (type 1b)
T2 construct: a region encoding NS5B (J Virol 1991 March, 65(3), 1105-13, 544 amino acids after deletion of 47 amino acids on the C-terminal); 6xHis (C); made in house; host or cells: Escherichia coli
How it was run: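 Polymerase activity was followed as radiolabelled UTP incorporation by E. coli-expressed, His-tagged NS5B of HCV type 1b lacking its last 47 residues. Conditions: 2 μM UTP, 50 μM other NTPs, Mg2+ buffer at pH 7.5, 25 °C for 60 min. Inhibition relative to compound-free reactions gave IC50.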

[3] = HCV polymerase inhibitory activity IC50, 1a, type 1a enzyme
[4] = HCV polymerase inhibitory activity IC50, 1b, type 1b enzyme
[5] = HCV polymerase inhibitory activity (IC50), 1a, type 1a enzyme 1.5 μg/ml, 25° C., 60 min
[6] = HCV polymerase inhibitory activity (IC50), 1b, type 1b enzyme 0.5 μg/ml, 25° C., 60 min

| Structure (SMILES) | IC50 [1, 3] [µM] | IC50 [2, 4] [µM] | IC50 [1, 5] [µM] | IC50 [2, 6] [µM] |
| --- | --- | --- | --- | --- |
| CCC(F)(F)c1ccc(CNC(=O)[C@H]2CN(c3cnc4cncnc4n3)CCN2S(=O)(=O)c2ccc(-c3nc(=O)o[nH]3)cc2)cc1 [Example 759, (R)-1-[4-(5-oxo-2,5-dihydro-[1,2,4]oxadiazol-3-yl)-benzenesulfonyl]-4-pteridin-7-yl-piperazine-2-carboxylic acid 4-(1,1-difluoro-propyl)-benzylamide] | < 0.1 | < 0.1 | – | – |
| CCC(F)(F)c1ccc(CNC(=O)[C@H]2CN(C(=O)n3cnc(N)n3)CCN2S(=O)(=O)c2ccc(OC(F)(F)F)cc2)cc1 [Example 540, (R)-4-(3-amino-[1,2,4]triazole-1-carbonyl)-1-(4-trifluoromethoxy-benzenesulfonyl)-piperazine-2-carboxylic acid 4-(1,1-difluoro-propyl)-benzylamide] | – | – | > 1 | > 1 |
| CCC(F)(F)c1ccc(CNC(=O)[C@H]2CN(c3cnc4cnccc4n3)CCN2S(=O)(=O)c2ccc(N3CCOCC3)cc2)cc1 [Example 746, (R)-1-(4-morpholin-4-yl-benzenesulfonyl)-4-pyrido[3,4-b]pyrazin-2-yl-piperazine-2-carboxylic acid 4-(1,1-difluoro-propyl)-benzylamide] | < 0.1 | < 0.1 | – | – |
| Cc1nc(N2CCN(S(=O)(=O)c3ccc(C(F)(F)F)cc3)[C@@H](C(=O)NCc3ccc(C(C)C)cc3)C2)ncc1C(=O)OCc1ccccc1 [Example 336, 2-[(R)-3-(4-isopropyl-benzylcarbamoyl)-4-(4-trifluoromethyl-benzenesulfonyl)-piperazin-1-yl]-4-methyl-pyrimidine-5-carboxylic acid benzyl ester] | – | – | > 1 | > 1 |
| CC(=O)N1CCN(S(=O)(=O)c2ccc(C(C)C)cc2)C(C(=O)NCc2ccccc2N(C)C)C1 (centres unmarked) [Example 129, 4-acetyl-1-(4-isopropyl-benzenesulfonyl)-piperazine-2-carboxylic acid 2-dimethylamino-benzylamide] | – | – | > 1 | > 1 |
| NC(=O)c1ncc2sc(N3CCN(S(=O)(=O)c4ccc(OC(F)(F)F)cc4)[C@@H](C(=O)NCc4ccc(OC(F)(F)F)cc4)C3)nc2n1 [Example 979, 2-[(R)-4-(4-trifluoromethoxy-benzenesulfonyl)-3-(4-trifluoromethoxy-benzylcarbamoyl)-piperazin-1-yl]-thiazolo[4,5-d]pyrimidine-5-carboxylic acid amide] | < 0.1 | < 0.1 | – | – |
| COCc1ccc(CNC(=O)[C@H]2CN(c3cnc(C(=O)O)cn3)CCN2S(=O)(=O)c2ccc(OC(F)(F)F)cc2)cc1 [Example 473, (R)-3-(4-methoxymethyl-benzylcarbamoyl)-4-(4-trifluoromethoxy-benzenesulfonyl)-3,4,5,6-tetrahydro-2H-[1,2′]bipyrazinyl-5′-carboxylic acid] | – | – | < 0.1 | < 0.1 |
| CCOc1ccc(CNC(=O)[C@H]2CN(c3cnc4cncnc4n3)CCN2S(=O)(=O)c2ccc(OC(F)(F)F)cc2)cc1 [Example 651, (R)-4-pteridin-7-yl-1-(4-trifluoromethoxy-benzenesulfonyl)-piperazine-2-carboxylic acid 4-ethoxy-benzylamide] | – | – | < 0.1 | < 0.1 |
| CCC(F)(F)c1ccc(CNC(=O)[C@H]2CN(c3cnc4cncnc4n3)CCN2S(=O)(=O)c2ccc(Br)s2)cc1 [Example 737, (R)-1-(5-bromo-thiophene-2-sulfonyl)-4-pteridin-7-yl-piperazine-2-carboxylic acid 4-(1,1-difluoro-propyl)-benzylamide] | < 0.1 | < 0.1 | – | – |
| CC(C)c1ccc(CNC(=O)[C@H]2CN(C(=O)Cn3nnnc3CC(=O)O)CCN2S(=O)(=O)c2ccc(C(F)(F)F)cc2)cc1 [Example 312, (1-{2-[(R)-3-(4-isopropyl-benzylcarbamoyl)-4-(4-trifluoromethyl-benzenesulfonyl)-piperazin-1-yl]-2-oxo-ethyl}-1H-tetrazol-5-yl)-acetic acid] | – | – | > 1 | 0.1 to 1 |
| CCCn1ccc(CNC(=O)[C@H]2CN(C(C)=O)CCN2S(=O)(=O)c2ccc(OC(F)(F)F)cc2)cc1=O [Example 634, (R)-4-acetyl-1-(4-trifluoromethoxy-benzenesulfonyl)-piperazine-2-carboxylic acid (2-oxo-1-propyl-1,2-dihydro-pyridin-4-ylmethyl)-amide] | – | – | 0.1 to 1 | > 1 |
| CCCc1ccc(CNC(=O)[C@H]2CN(c3nc4c(s3)CN(Cc3ccccc3)CC4)CCN2S(=O)(=O)c2ccc(OC(F)(F)F)cc2)cc1 [Example 561, (R)-4-(5-benzyl-4,5,6,7-tetrahydro-thiazolo[5,4-c]pyridin-2-yl)-1-(4-trifluoromethoxy-benzenesulfonyl)-piperazine-2-carboxylic acid 4-propyl-benzylamide] | – | – | < 0.1 | < 0.1 |
| CC(C)c1ccc(CNC(=O)[C@H]2CN(C(=O)Nc3ccc(Cl)cc3)CCN2S(=O)(=O)c2ccc(C(F)(F)F)cc2)cc1 [Example 271, (R)-4-(4-trifluoromethyl-benzenesulfonyl)-piperazine-1,3-dicarboxylic acid 1-[(4-chloro-phenyl)-amide] 3-(4-isopropyl-benzylamide)] | – | – | > 1 | > 1 |
| COc1ccccc1CNC(=O)C1CN(C(C)=O)CCN1S(=O)(=O)c1ccc(C(C)C)cc1 (centres unmarked) [Example 50, 4-acetyl-1-(4-isopropyl-benzenesulfonyl)-piperazine-2-carboxylic acid 2-methoxy-benzylamide] | – | – | > 1 | > 1 |
| COc1cccc(S(=O)(=O)N2CCN(C(C)=O)CC2C(=O)NCc2ccc(C(F)(F)F)cc2)c1 (centres unmarked) [Example 71, 4-acetyl-1-(3-methoxy-benzenesulfonyl)-piperazine-2-carboxylic acid 4-trifluoromethyl-benzylamide] | – | – | > 1 | > 1 |
| CCC(F)(F)c1ccc(CNC(=O)[C@H]2CN(c3nc(OC)ns3)CCN2S(=O)(=O)c2ccc(OC(F)(F)F)cc2)cc1 [Example 625, (R)-4-(3-methoxy-[1,2,4]thiadiazol-5-yl)-1-(4-trifluoromethoxy-benzenesulfonyl)-piperazine-2-carboxylic acid 4-(1,1-difluoro-propyl)-benzylamide] | – | – | < 0.1 | < 0.1 |
| CCC(F)(F)c1ccc(CNC(=O)[C@H]2CN(c3cnc4cccc(Cl)c4n3)CCN2S(=O)(=O)c2ccc(OC(F)(F)F)cc2)cc1 [Example 742, (R)-4-(8-chloro-quinoxalin-2-yl)-1-(4-trifluoromethoxy-benzenesulfonyl)-piperazine-2-carboxylic acid 4-(1,1-difluoro-propyl)-benzylamide] | 0.1 to 1 | < 0.1 | – | – |
| Cc1nc(N2CCN(S(=O)(=O)c3ccc4c(c3)CCCCC4)[C@@H](C(=O)NCc3ccc(C(C)C)cc3)C2)sc1C(=O)O [Example 381, 2-[(R)-3-(4-isopropyl-benzylcarbamoyl)-4-(6,7,8,9-tetrahydro-5H-benzocycloheptene-2-sulfonyl)-piperazin-1-yl]-4-methyl-thiazole-5-carboxylic acid] | – | – | < 0.1 | < 0.1 |
| Cc1nc(N2CCN(S(=O)(=O)c3ccc(OC(F)(F)F)cc3)[C@@H](C(=O)NCc3ccc(N(C)C)nc3)C2)sc1C(=O)O [Example 387, 2-[(R)-3-[(6-dimethylamino-pyridin-3-ylmethyl)-carbamoyl]-4-(4-trifluoromethoxy-benzenesulfonyl)-piperazin-1-yl]-4-methyl-thiazole-5-carboxylic acid] | – | – | < 0.1 | < 0.1 |
